# Patent publication US20100204203A1, “Chemical Compounds 637: Pyridopyrimidinediones as PDE4 Inhibitors” (priority 2007, published 2010)
# Counter-ions that a name gives are not always drawn.
# Target: recombinant Human Phosphodiesterase B2 (PDE4B2) (Homo sapiens, UniProt Q07343)
# Assay: Human Phosphodiesterase B2 Radiometric Assay (yttrium silicate SPA beads, [3H]cyclic AMP)
# Assay type: biochemical
# Settings: recombinant human PDE4B2, radiometric SPA assay, 8 nM [3H]cyclic AMP; read-out: PDE4B2 pIC50 (converted)
# Procedure: Human Phosphodiesterase B2 Radiometric Assay
# The assay uses recombinant Human Phosphodiesterase B2 (PDE4B2) produced in house (PrAZL0163), stored at −20° C. This assay is based on the observation that 5′AMP, the product of the reaction catalysed by PDE4, binds preferentially to yttrium silicate SPA beads (Amersham Biosciences, UK) compared to the substrate, cAMP. Compounds at the appropriate concentration were preincubated at 30 C for 30 min with an assay buffer containing 50 mM HEPES (pH 7.5), 8.3 mM MgCl2, 1.7 mM EGTA, 0.01% (w/v) Brij° 35 and 0.1 mg/mL recombinant PDE4B2. The reaction was started by the addition of [3H]cyclic AMP to give a final concentration of 8 nM, and was stopped 20 minutes after the addition of the substrate by the addition of yttrium silicate SPA beads containing 18 mM Zn SO4. Bound [3H]cyclic AMP was measured using a Topcount NXT (Packard Bioscience, UK). pIC50 values (presented in Table 15) were determined using Xlfit3 curve fitting, using model 205.
# recombinant Human Phosphodiesterase B2 (PDE4B2), sequence (Q07343 1-564 isoform Q07343-2): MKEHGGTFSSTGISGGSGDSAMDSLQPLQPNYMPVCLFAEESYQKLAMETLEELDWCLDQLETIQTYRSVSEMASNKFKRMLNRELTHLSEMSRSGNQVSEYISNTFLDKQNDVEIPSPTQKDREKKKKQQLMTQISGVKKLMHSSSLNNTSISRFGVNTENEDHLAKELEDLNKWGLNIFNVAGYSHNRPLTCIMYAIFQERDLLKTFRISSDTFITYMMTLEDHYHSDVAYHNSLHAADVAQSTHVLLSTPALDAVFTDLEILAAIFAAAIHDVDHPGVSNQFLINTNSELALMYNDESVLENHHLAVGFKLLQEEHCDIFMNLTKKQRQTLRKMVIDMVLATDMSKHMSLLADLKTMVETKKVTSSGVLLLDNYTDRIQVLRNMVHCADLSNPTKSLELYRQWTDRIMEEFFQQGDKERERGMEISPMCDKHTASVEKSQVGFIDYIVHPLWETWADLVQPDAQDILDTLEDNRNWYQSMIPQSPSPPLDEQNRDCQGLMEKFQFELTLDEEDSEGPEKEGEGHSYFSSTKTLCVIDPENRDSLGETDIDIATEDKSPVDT
row,Compound,IC50
1,"CNC1CCN(Cc2cc(O)ccc2-c2cccc(-n3c(=O)n([C@H]4CC[C@@H](NC(=O)c5cn6cc(F)ccc6n5)CC4)c(=O)c4cc(F)cnc43)c2)CC1 [Example 73, 6-fluoro-N-{cis-4-[6-fluoro-1-(4′-hydroxy-2′-{[4-(methylamino)piperidin-1-yl]methyl}biphenyl-3-yl)-2,4-dioxo-1,4-dihydropyrido[2,3-d]pyrimidin-3(2H)-yl]cyclohexyl}imidazo[1,2-a]pyridine-2-carboxamide trifluoroacetate salt]",0.0251 nM
2,"CN(C)Cc1cc(O)ccc1-c1cccc(-n2c(=O)n([C@H]3CC[C@@H](NC(=O)c4cn5cc(F)ccc5n4)CC3)c(=O)c3cc(F)cnc32)c1 [Example 104, N-{cis-4-[1-{2′-[(dimethylamino)methyl]-4′-hydroxybiphenyl-3-yl}-6-fluoro-2,4-dioxo-1,4-dihydropyrido[2,3-d]pyrimidin-3(2H)-yl]cyclohexyl}-6-fluoroimidazo[1,2-a]pyridine-2-carboxamide]",0.00316 nM
3,"O=c1c2cc(F)cnc2n(-c2cccc(-c3ccccc3)c2)c(=O)n1[C@H]1CC[C@@H](NCCO)CC1 [Example 86, 1-biphenyl-3-yl-6-fluoro-3-{cis-4-[(2-hydroxyethyl)amino]cyclohexyl}pyrido[2,3-d]pyrimidine-2,4(1H,3H)-dione]",31.6 nM
4,"O=C(N[C@H]1CC[C@@H](n2c(=O)c3cc(F)cnc3n(-c3cccc(-c4ccc(CN5CCNCC5)cc4Br)c3)c2=O)CC1)c1cn2cc(F)ccc2n1 [Example 229, N-{cis-4-[1-[2′-Bromo-4′-(piperazin-1-ylmethyl)biphenyl-3-yl]-6-fluoro-2,4-dioxo-1,4-dihydropyrido[2,3-d]pyrimidin-3(2H)-yl]cyclohexyl}-6-fluoroimidazo[1,2-a]pyridine-2-carboxamide]",0.00631 nM
5,"Cc1cc(C(=O)N[C@H]2CC[C@@H](n3c(=O)c4cc(F)cnc4n(-c4cccc(-c5ccc(CN6CCN(c7ccccn7)CC6)cc5)c4)c3=O)CC2)nn1C [Example 214, N-{cis-4-[6-fluoro-2,4-dioxo-1-{4′-[(4-pyridin-2-ylpiperazin-1-yl)methyl]biphenyl-3-yl}-1,4-dihydropyrido[2,3-d]pyrimidin-3(2H)-yl]cyclohexyl}-1,5-dimethyl-1H-pyrazole-3-carboxamide]",0.0251 nM
6,"Cc1cc(C(=O)N[C@H]2CC[C@@H](n3c(=O)c4cc(F)cnc4n(-c4cccc(-c5ccc(CN(C)CCN(C)C)cc5)c4)c3=O)CC2)nn1C [Example 113, N-{cis-4-[1-(4′-{[[2-(dimethylamino)ethyl](methyl)amino]methyl}biphenyl-3-yl)-6-fluoro-2,4-dioxo-1,4-dihydropyrido[2,3-d]pyrimidin-3(2H)-yl]cyclohexyl}-1,5-dimethyl-1H-pyrazole-3-carboxamide]",0.0126 nM
7,"Cc1cc(C(=O)N[C@H]2CC[C@@H](n3c(=O)c4cc(F)cnc4n(-c4cccc(-c5ccc(CN6CCN(C7CCCC7)CC6)cc5)c4)c3=O)CC2)nn1C [Example 215, N-{cis-4-[1-{4′-[(4-cyclopentylpiperazin-1-yl)methyl]biphenyl-3-yl}-6-fluoro-2,4-dioxo-1,4-dihydropyrido[2,3-d]pyrimidin-3(2H)-yl]cyclohexyl}-1,5-dimethyl-1H-pyrazole-3-carboxamide]",0.0316 nM
8,"CN(C)Cc1ccc(-c2cccc(-n3c(=O)n([C@H]4CC[C@@H](NC(=O)c5cn6cc(F)ccc6n5)CC4)c(=O)c4cc(F)cnc43)c2)c(O)c1 [Example 94, N-{cis-4-[1-{4′-[(dimethylamino)methyl]-2′-hydroxybiphenyl-3-yl}-6-fluoro-2,4-dioxo-1,4-dihydropyrido[2,3-d]pyrimidin-3(2H)-yl]cyclohexyl}-6-fluoroimidazo[1,2-a]pyridine-2-carboxamide]",0.316 nM
9,"CN(C)C1(C(=O)N[C@H]2CC[C@@H](n3c(=O)c4cc(F)cnc4n(-c4cccc(-c5ccc(CN6CCN(C7CCCC7)CC6)cc5)c4)c3=O)CC2)CC1 [Example 210, N-{cis-4-[1-{4′-[(4-cyclopentylpiperazin-1-yl)methyl]biphenyl-3-yl}-6-fluoro-2,4-dioxo-1,4-dihydropyrido[2,3-d]pyrimidin-3(2H)-yl]cyclohexyl}-1-(dimethylamino)cyclopropane-carboxamide]",0.02 nM

# Other lines, results leading:
row,IC50,Compound
1,0.00794 nM,"Cc1cccc2nc(CN[C@H]3CC[C@@H](n4c(=O)c5cc(F)cnc5n(-c5cccc(-c6ccc(O)cc6CN6CCOCC6)c5)c4=O)CC3)cn12 [Example 335, 6-fluoro-1-[4′-hydroxy-2′-(morpholin-4-ylmethyl)biphenyl-3-yl]-3-(cis-4-{[(5-methylimidazo[1,2-c]pyridin-2-yl)methyl]amino}cyclohexyl)pyrido[2,3-d]pyrimidine-2,4(1H,3H)-dione]"
2,0.0501 nM,"C[C@@H]1CN(Cc2ccc(-c3cccc(-n4c(=O)n([C@H]5CC[C@@H](NC(=O)c6cc7ccccc7cn6)CC5)c(=O)c5cc(F)cnc54)c3)cc2)C[C@H](C)N1 [Example 304, N-{cis-4-[1-(4′-{[(3R,5S)-3,5-dimethylpiperazin-1-yl]methyl}biphenyl-3-yl)-6-fluoro-2,4-dioxo-1,4-dihydropyrido[2,3-d]pyrimidin-3(2H)-yl]cyclohexyl} isoquinoline-3-carboxamide]"
3,0.631 nM,"C[C@H](CO)N(C)Cc1cc(O)ccc1-c1cccc(-n2c(=O)n([C@H]3CC[C@@H](NCc4cn5cc(F)ccc5n4)CC3)c(=O)c3cc(F)cnc32)c1 [Example 319, 6-fluoro-3-(cis-4-{[(6-fluoroimidazo[1,2-a]pyridin-2-yl)methyl]amino}cyclohexyl)-1-(4′-hydroxy-2′-{[[(1R)-2-hydroxy-1-methylethyl](methyl)amino]methyl}biphenyl-3-yl)pyrido[2,3-d]pyrimidine-2,4(1H,3H)-dione]"
4,0.0398 nM,"CN1CCCN(Cc2ccc(-c3cccc(-n4c(=O)n([C@H]5CC[C@@H](NC(=O)c6nc7ccccc7[nH]c6=O)CC5)c(=O)c5cc(F)cnc54)c3)cc2)CC1 [Example 360, N-{cis-4-[6-fluoro-1-{4′-[(4-methyl-1,4-diazepan-1-yl)methyl]biphenyl-3-yl}-2,4-dioxo-1,4-dihydropyrido[2,3-d]pyrimidin-3(2H)-yl]cyclohexyl}-3-oxo-3,4-dihydroquinoxaline-2-carboxamide]"
5,0.126 nM,"CN1CCCN(Cc2ccc(-c3cccc(-n4c(=O)n([C@H]5CC[C@@H](NC(=O)c6cc7c(o6)CCCC7=O)CC5)c(=O)c5cc(F)cnc54)c3)cc2)CC1 [Example 310, N-{cis-4-[6-fluoro-1-{4′-[(4-methyl-1,4-diazepan-1-yl)methyl]biphenyl-3-yl}-2,4-dioxo-1,4-dihydropyrido[2,3-d]pyrimidin-3(2H)-yl]cyclohexyl}-4-oxo-4,5,6,7-tetrahydro-1-benzofuran-2-carboxamide]"
6,2 nM,CN(Cc1cc(O)ccc1-c1cccc(-n2c(=O)n([C@H]3CC[C@@H](NCc4cn5cc(F)ccc5n4)CC3)c(=O)c3cc(F)cnc32)c1)CC1CC1 [Example 325]
7,0.501 nM,"Cc1oncc1C(=O)N[C@H]1CC[C@@H](n2c(=O)c3cc(F)cnc3n(-c3cccc(-c4ccc(CN5CCN(C(C)C)CC5)cc4)c3)c2=O)CC1 [Example 240, N-{cis-4-[6-fluoro-1-{4′-[(4-isopropylpiperazin-1-yl)methyl]biphenyl-3-yl}-2,4-dioxo-1,4-di-hydropyrido[2,3-d]pyrimidin-3(2H)-yl]cyclohexyl}-5-methyl-isoxazole-4-carboxamide]"
8,0.794 nM,"COc1ccc(CN[C@H]2CC[C@@H](n3c(=O)c4cc(F)cnc4n(-c4cccc(-c5ccc(CN6CCN(C(C)C)CC6)cc5)c4)c3=O)CC2)cc1OC(C)=O [Example 257, 5-[({cis-4-[6-Fluoro-1-{4′-[(4-isopropylpiperazin-1-yl)methyl]biphenyl-3-yl}-2,4-dioxo-1,4-dihydropyrido[2,3-d]pyrimidin-3(2H)-yl]cyclohexyl}amino)methyl]-2-methoxyphenyl acetate]"
9,0.501 nM,"COc1ccc(CN[C@H]2CC[C@@H](n3c(=O)c4cc(F)cnc4n(-c4cccc(-c5ccc(CN6CCN(C(C)C)CC6)cc5)c4)c3=O)CC2)cc1Cl [Example 260, 3-{cis-4-[(3-chloro-4-methoxybenzyl)amino]cyclohexyl}-6-fluoro-1-{4′-[(4-isopropyl-piperazin-1-yl)methyl]biphenyl-3-yl}pyrido[2,3-d]pyrimidine-2,4(1H,3H)-dione]"
10,0.00631 nM,"C[C@@H]1CN(Cc2ccc(-c3cccc(-n4c(=O)n([C@H]5CC[C@@H](NC(=O)c6cn7cc(F)ccc7n6)CC5)c(=O)c5cc(F)cnc54)c3)cc2)C[C@H](C)N1 [Example 270, N-{cis-4-[1-(4′-{[(3R,5S)-3,5-Dimethylpiperazin-1-yl]methyl}biphenyl-3-yl)-6-fluoro-2,4-dioxo-1,4-dihydropyrido[2,3-d]pyrimidin-3(2H)-yl]cyclohexyl}-6-fluoroimidazo[1,2-a]pyridine-2-carboxamide]"
11,0.0501 nM,"CC(C)N1CCN(Cc2ccc(-c3cccc(-n4c(=O)n([C@H]5CC[C@@H](NC(=O)C6CC6)CC5)c(=O)c5cc(F)cnc54)c3)cc2)CC1 [Example 233, N-{cis-4-[6-fluoro-1-{4′-[(4-isopropylpiperazin-1-yl)methyl]biphenyl-3-yl}-2,4-dioxo-1,4-di-hydropyrido[2,3-d]pyrimidin-3(2H)-yl]cyclohexyl}cyclo-propanecarboxamide]"
